Experimental findings from patent US20140094387A1, “SUV39H2 AS A TARGET GENE FOR CANCER THERAPY AND DIAGNOSIS” (ONCOTHERAPY SCIENCE, INC., priority 2011, published 2014) are described below.

The subject of this data set is SUV39H2. As to the kind of experiment: Quantitative real-time PCR of SUV39H2 expression after siRNA transfection. Format: cell-based, human. The conditions noted are these: A549 and SW780 cells; siRNA 100 nM; normalized by GAPDH, relative to siEGFP (siEGFP=1); vs control siRNAs siEGFP and siNC. (Quantitative PCR measures a nucleic acid by following its amplification.)

For the substance “siSUV39H2#2: siRNA duplex targeting human SUV39H2; target 5' CUGGAAUCAGCUUAGUCAA 3' (SEQ ID NO: 20); sense SEQ ID NO: 17, antisense SEQ ID NO: 18 (sense CUGGAAUCAGCUUAGUCAATT; antisense UUGACUAAGCUGAUUCCAGTT; chemistry not given here)”, the “SUV39H2 mRNA expression level” value was “suppression of endogenous SUV39H2 expression”.
For “siSUV39H2#1: siRNA duplex targeting human SUV39H2; target 5' CUUUGGUUGUUCAUGCACA 3' (SEQ ID NO: 19); sense SEQ ID NO: 15, antisense SEQ ID NO: 16 (sense CUUUGGUUGUUCAUGCACATT; antisense UGUGCAUGAACAACCAAAGTT; chemistry not given here)” the value was “suppression of endogenous SUV39H2 expression”.
